Source: patent publication US6420563B1, “Small molecule modulators of G protein-coupled receptor six” (Arena Pharmaceuticals, Inc., priority 1998, dated 2002)
“And” between values parts separate entries of the source, which are not always exact repeats. Identical values can stand only once. Like-named read-outs stand apart in the source and are kept apart here.

Tests used:
[1] = target: T1, GPR6 (Homo sapiens, UniProt P46095); assay: membrane-based cyclic AMP confirmation assay (Example 4C); assay type: biochemical
T1 construct: expressed in transfected cells; 293 cells are used elsewhere
T1 sequence (P46095 whole entry): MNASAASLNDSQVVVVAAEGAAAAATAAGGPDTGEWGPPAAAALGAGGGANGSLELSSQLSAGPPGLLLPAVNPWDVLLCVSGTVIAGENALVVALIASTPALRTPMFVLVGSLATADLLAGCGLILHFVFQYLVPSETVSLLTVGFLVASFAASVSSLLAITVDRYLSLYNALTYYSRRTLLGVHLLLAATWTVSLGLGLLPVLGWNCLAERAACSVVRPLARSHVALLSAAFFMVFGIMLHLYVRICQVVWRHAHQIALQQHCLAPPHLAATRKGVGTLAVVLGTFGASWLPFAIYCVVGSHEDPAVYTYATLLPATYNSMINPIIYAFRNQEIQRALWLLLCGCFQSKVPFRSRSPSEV
In short: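 Membranes from stably transfected cells (0.60 mg/ml protein, 30 μg/well) in 20 mM HEPES pH 7.4, 100 mM NaCl, 10 mM MgCl2 were incubated 30 min at room temperature with compound at 12 μM final. cAMP then measured by Flash Plate adenylyl cyclase detection after 2-20 h, scintillation counting.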

[2] = Food/water intake and body weight in 24-hour food deprived rats, oral gavage (PO); assay type: in vivo, rat
In short: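 Rats food-deprived 24 h, then dosed by oral gavage (6.75–54 mg/kg, or 100–200 μmol/kg for analogs). Food intake tracked over hours post-dose (2.5 h up to 8 h) along with body weight gain, compared with vehicle-treated rats.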

[3] = 100 μmol/kg PO, second assay, Table D, vehicle 19.25

IC50 ([1]; assay number 1-3 for compound ARE112, read-out: IC50 Values (nM) cAMP): 88.3 nM and 77.4 nM and 99 nM
IC50 ([1]; mean +/- standard deviation (number of assays in brackets), read-out: IC50 Values Cyclic AMP Assay Example 4C): 100 nM
Compound: O=C(N=C1SSC2=NCCN21)c1cccs1 [ARE112, N-(5,6-dihydro-3H-imidazo[2,1-c]-1,2,4-dithiazol-3-ylidene)-thiophen-2-carboxamide]
Cumulative Food Intake (g) (8 hr post administration) ([2]; 100 μmol/kg PO, second assay, Table D, vehicle 14.0): 8.1 g
Body Weight Gain (g) (6 hr post administration) [2, 3]: 6.25 g
Cumulative Water Intake (g) (6 hr post administration) [2, 3]: 10.5 g
body weight gain (FIG. 10C) ([2]; 100 μmol/kg oral, vehicle about 19.5 grams): 6 grams
food consumed ([2]; 27 mg/kg oral gavage, 2.5 hours, vehicle about 6 grams): about 6 grams
food consumed ([2]; 27 mg/kg oral gavage, 8 hours post-administration, vehicle about 14 grams): about 8 grams
food consumed ([2]; 54 mg/kg oral gavage, 2.5 hours, vehicle about 6 grams): ~4 grams
food consumed ([2]; 54 mg/kg oral gavage, 8 hours post-administration, vehicle about 14 grams): about 6 grams
